Our source for the LD50 and ED50 values is US5114934A, “Tricyclic pyridone derivatives” (Hoffman-La Roche, Inc., priority 1985, dated 1992).

Usually LD50 stands for the dose at which mortality reaches 50%. A low value points to greater toxicity. As a reminder, the ED50 is the dose at which the effect has come halfway, by size or by number of responders.

The nature of data set [1]: acute toxicity (LD50), single oral administration to mice. The note with it: mouse, in vivo. The procedure:
(§1) In this animal experiment the compound under investigation is administered orally to mice and 30 minutes later there are administered intraperitoneally 120 mg/kg of pentetrazole, which causes emprosthotonus and tonic stretchings of the fore and/or hind limbs in unprotected animals 1-4 minutes after the injection. 10 experimental animals are used per dosage of test substance. After counting the protected experimental animals the ED50 is determined according to the Probit method. The ED50 is that dosage which protects 50% of the experimental animals from the spasmodic seizures caused by pentetrazole. The results which have been obtained with representative members of the class of compound defined by formula I in the experiment described previously are compiled in the following Table. Moreover, the Table contains data concerning the acute toxicity (LD50) of some of these compounds in mg/kg in the case of single oral administration to mice.

Data set [2] concerns spasmodic seizures caused by pentetrazole. The experiment in a line: antipentetrazole test (mice, oral). The note with it: Mus musculus, 0.5 h, 30 minutes before 120 mg/kg pentetrazole i.p., dosage protecting 50% of animals, Probit method. Type of data set: in vivo. The procedure: As mentioned earlier, the compounds of formula I have valuable pharmacological properties. In particular they display pronounced muscle relaxant, sedative-hypnotic, anticonvulsive and/or anxiolytic properties and have only a low toxicity.
as §1

Structures are written as SMILES. Bounds are passed on as bounds.

In turn, `COC1CN(C(=O)c2cc(-c3ccccc3)c(=O)n3ncc4ccsc4c23)C1` [Compound M, 3-Methoxy-1-[(7-oxo-8-phenyl-7H-pyrido-[1,2-b]thieno[2,3-d]pyridazin-10-yl)carbonyl]-azetidine] returned an LD50 in data set [1] of 5000 mg/kg. Besides, the ED50 in data set [2] was found to be 0.83 mg/kg.

Turning to `CN(C)C(=O)c1cc(-c2ccccc2)c(=O)n2ncc3ccc(Cl)cc3c12` [Compound G, N,N-Dimethyl-10-chloro-4-oxo-3-phenyl-4H-pyrido[2,1-a]phthalazine-1-carboxamide], in data set [1], the LD50 came to 5000 mg/kg. In data set [2], this molecule displayed an ED50 of 0.08 mg/kg.

Molecule `COC1CN(C(=O)c2cc(-c3ccccc3)c(=O)n3ncc4ccc(Cl)cc4c23)C1` [Compound F, 1-[(10-Chloro-4-oxo-3-phenyl-4H-pyrido[2,1-a]-phthalazin-1-yl)carbonyl]-3-methoxyazetidine] returned an LD50 in data set [1] of 5000 mg/kg. Moreover, it took a dose of 0.79 mg/kg to reach the 50% effect level in data set [2] (ED50).

In data set [1], `CCN(CC)C(=O)c1cc(-c2ccccc2)c(=O)n2ncc3ccc(Cl)cc3c12` [Compound H, N,N-Diethyl-10-chloro-4-oxo-3-phenyl-4H-pyrido[2,1-a]phthalazine-1-carboxamide] returned a 50% lethal dose (LD50) of over 4000 mg/kg. In data set [2], this molecule returned a median effective dose (ED50) of 0.66 mg/kg.

Take `COC1CN(C(=O)c2cc(-c3ccccc3)c(=O)n3ncc4ccccc4c23)C1` [Compound A, 3-methoxy-1-[(4-oxo-3-phenyl-4H-pyrido-[2,1-a]phthalazin-1-yl)carbonyl]azetidine]: in data set [1], the LD50 was 1500 mg/kg. In data set [2], it took a dose of 1.1 mg/kg to reach the 50% effect level (ED50).
